Results on 13 molecules are retold here after patent US12440454B2, “Pharmaceutical compositions containing hemp extract for administration to felines and related methods” (Portland Technology Holdings LLC, priority 2022, dated 2025).

Molecules are shown by their SMILES.

A short description of data set [1]: 24 hour pharmacokinetic analysis of serum cannabinoids after oral CBD/CBDA rich hemp paste. To be noted: for detectability in serum of cats at any time point: 24 hour PK; for Css Ave (calculated predicted 5 half-life mean serum concentration): predicted steady state from one compartment model. The text has this: (§1) Eight cats from a contract research laboratory (Summit Ridge Farms, Gibson, PA) were utilized for this experiment. 4 spayed female cats and 4 neutered male cats were used. […] The cat population ranged from 4.1 kg to 5.4 kg (mean weight 4.7 kg). An initial dosage of 1 g of paste was fed to each cat at zero hours. Additionally, and after the initial 24-hour pharmacokinetic assessment, treatment with 1 g of paste resumed on the next day for 6 days, twice daily at 7 am and 4 pm each day. […] Cats were fed their normal daily meal approximately 1 hour after oral paste consumption. The base of the paste was a proprietary mix of soy oil, dextrose, dried chicken liver, silica, inulin, polysorbate 60, potassium sorbate, sorbic acid, saccharin, mixed tocopherols, methylparaben, propylparaben in descending order of volume with 15% cannabinoid rich hemp oil emulsified with the product. Prior to enrollment all cats involved in the study were deemed healthy and normal based on physical examination, complete blood count and serum chemistry assessment. During the 1-week trial examination of all cats were assessed at the 1 and 4 hour time point after morning dosing. The assessment included examination for physical abnormalities and examination for adverse events including diarrhea, vomiting, lethargy, somnolence, ataxia, or abnormal behavior within the colony during treatment. Regarding the 24 hour pharmacokinetic study, two milliliters of blood was drawn via jugular venipuncture for all 8 cats prior to the initial dose and then again at 0.5, 1, 2, 4, 8 and 24 hours for a 7 point pharmacokinetic analysis. Complete blood counts, serum chemistry and serum cannabinoid concentrations were performed before the initial treatment and at the end of day 7 treatment, 6 hours after the morning treatment. Complete blood count data included white blood cells (WBC), hematocrit, hemoglobin, red blood cells (RBC), neutrophils, lymphocytes, platelets, monocytes, eosinophils, basophils). Serum biochemistry analyses included sodium, potassium, chloride, magnesium, calcium, phosphorus, albumin, total protein, globulin, urea nitrogen, creatinine, alkaline phosphatase (ALP), alanine aminotransferase (ALT), aspartate amino transferase (AST), cholesterol, total bilirubin, glucose and gamma glutamyl transferase (GGT) with a focus of this report being renal and hepatic parameters. All blood parameters measured were performed at the Cornell University Diagnostic Laboratory.
(§2) Analysis was performed using an exploratory (fit-for-purpose) method for fast measurement of thirteen cannabinoids and their metabolites at the Toxicology Research Laboratory, University of Illinois at Chicago.
Cat serum (40 μL) was mixed with 20 μL of internal standards [100 ng/mL of CBD-d3, THC-d3, THCA-d3, 7-COOH-CBD-d3, 7-OH-CBD-d5, 11-OH-THC-d3, COOH-THC-d9, and COOH-THC-Glu-d3 in water:methanol (50:50)] in a 96 well plate. Proteins were precipitated and compounds were extracted by adding 100 μL of ice-cold acetonitrile to the samples, then vortexing for 1-2 minutes and centrifuging at 4,000 rpm for 10 minutes at 4° C. Supernatants (70 μL) were mixed with 70 μL of water in a different 96 well plate, and centrifuged again. […] The column was equilibrated with mobile phase A (0.1% formic acid in water) and mobile phase B (acetonitrile) at 50% B. The compounds were eluted by a linear gradient from 50% B to […] over 6 minutes, and then held at 95% B for 1 minute. Subsequently, the column was re-equilibrated at initial composition for 1 minute at a flow rate of 0.3 mL/min. The autosampler and column temperature were set a 4 and 30° C., respectively. The compounds were detected in electrospray ionization positive and/or negative mode.

Data set [2] can be described thus: Serum cannabinoid concentrations after one week of twice daily dosing (day 7, 6 hours post morning dose) compared with predicted steady state. To be noted: Student T-test.
From the text: as §1, §2
Cat serum (40 μL) was mixed with 20 μL of internal standards [100 ng/mL of CBD-d3, THC-d3, THCA-d3, 7-COOH-CBD-d3, 7-OH-CBD-d5, 11-OH-THC-d3, COOH-THC-d9, and COOH-THC-Glu-d3 in water:methanol (50:50)] in a 96 well plate. Proteins were precipitated and compounds were extracted by adding 100 μL of ice-cold acetonitrile to the samples, then vortexing for 1-2 minutes and centrifuging at 4,000 rpm for 10 minutes at 4° C. Supernatants (70 μL) were mixed with 70 μL of water in a different 96 well plate, and centrifuged again. […] The compounds were detected in electrospray ionization positive and/or negative mode.

Setting [3] is: both, cat, in vivo, po, 1 g of paste.
The mark [4] stands for this setting: both, in vivo, po, 1 g of paste.
The mark [5] stands for this setting: cats, single oral 1 g paste, serum, 0-24 h, mean ± SD.
Where [6] appears, read: cats, single oral 1 g paste, serum, mean ± SD.

Take `C=C(C)[C@@H]1CCC(C(=O)O)=C[C@H]1c1c(O)cc(CCCCC)cc1O` [7-COOH-CBD, 7-COOH cannabidiol]: in data set [1] (cats, serum), the “detectability in serum of cats at any time point” value (“detectability in serum of cats” below) is recorded as “found in all cats”.

On to `C=C(C)[C@@H]1CCC(CO)=C[C@H]1c1c(O)cc(CCCCC)cc1O` [7-OH-CBD, 7-OH-cannabidiol], for which, in data set [1] (cats, serum), the “detectability in serum of cats” value is “either below the detectable limit for the analyte or less than half of the population showed any appreciable concentration”. In data set [1] (of the 8 cats, serum), the “cats showing no detectable concentrations of this metabolite” value came to 5.

As for `CCCCCc1cc(O)c2c(c1)OC(C)(C)[C@@H]1CCC(CO)=C[C@@H]21` [11-OH-THC, 11-OH-tetrahydrocannabinol], in data set [1] (cats, serum), the “detectability in serum of cats” value is listed as “either below the detectable limit for the analyte or less than half of the population showed any appreciable concentration”.

In the case of `CCCCCc1cc(O)c2c(c1)OC(C)(CCC=C(C)C)C=C2` (centres unmarked) [CBC, cannabichromene], the “detectability in serum of cats” value in data set [1] (cats, serum) was “either below the detectable limit for the analyte or less than half of the population showed any appreciable concentration”.

Regarding `C=C(C)[C@@H]1CCC(C)=C[C@H]1c1c(O)cc(CCCCC)cc1O` [CBD, cannabidiol, reference compound], the “predicted steady state (Css Ave) versus actual serum concentration” value in data set [2] is “predicted concentration was higher than the actual concentration”. Further, the highest concentration (Cmax) (in general, the highest concentration seen after dosing) in data set [1] (setting [3]) turned out to be 282 ng/mL. In data set [1] (setting [4]), the area under the curve AUC(0-t) (usually the area under the concentration-time curve up to a stated or last time point) came out at 908 ± 528 ng·h/mL; the Tmax (as a rule, the time from dosing to the highest level) worked out at 2 h; the half-life (commonly the time needed for the level to fall by half in the phase considered) was 2.1 ± 1.1 h. In addition, the “Css Ave (calculated predicted 5 half-life mean serum concentration)” value in data set [1] (cats, mean ± SD) is 102.1 ± 46.3 ng/mL.

In the case of `C=C(C)[C@@H]1CCC(C)=C[C@H]1c1c(O)cc(CCCCC)c(C(=O)O)c1O` [CBDA, cannabidiolic acid], the “predicted steady state (Css Ave) versus actual serum concentration” value in data set [2] is “predicted concentration was higher than the actual concentration”. Also, the Cmax in data set [1] (setting [3]) is 1010 ng/mL. In addition, in data set [1] (setting [4]), the area under the curve AUC(0-t) was determined as 2640 ± 1280 ng·h/mL, the Cmax worked out at 1010 ± 495 ng/mL and the Tmax amounted to 1.6 ± 1.1 h. Further, the “Css Ave (calculated predicted 5 half-life mean serum concentration)” value in data set [1] (cats, mean ± SD) was 204.5 ± 87.8 ng/mL.

`CCCCCc1cc(O)c(C/C=C(\C)CCC=C(C)C)c(O)c1` [CBG, cannabigerol]: in data set [1] (both, in vivo, po), the AUC(0-t) is 11.4 ± 2.8 ng·h/mL; the Cmax was found to be 4.35 ± 1 ng/mL; the MRT (usually a mean duration of stay, worked out from the concentration-time curve) stood at 2.3 ± 0.1 h; the Tmax came out at 2 h. Besides, the half-life in data set [1] (both, in vivo, po) is 0.9 ± 0.1 h.

`CCCCCc1cc(O)c(C/C=C(\C)CCC=C(C)C)c(O)c1C(=O)O` [CBGA, cannabigerolic acid]: the “predicted steady state (Css Ave) versus actual serum concentration” value in data set [2] was “predicted concentration was higher than the actual concentration”. In data set [1] (setting [4]), the AUC(0-t) was found to be 34.1 ± 9.5 ng·h/mL, the peak concentration (Cmax) amounted to 19.7 ± 5.5 ng/mL, the MRT was found to be 1.5 ± 0.2 h and the Tmax is 1 ± 0.2 h. Also, the half-life in data set [1] (setting [4]) is 0.7 ± 0.1 h. Further, the “Css Ave (calculated predicted 5 half-life mean serum concentration)” value in data set [1] (cats, mean ± SD) is 4.8 ± 1.3 ng/mL.

As to `CCCCCc1cc(O)c2c(c1)OC(C)(C)c1ccc(C)cc1-2` [CBN, cannabinol], in data set [1] (cats, serum), the “detectability in serum of cats” value is “either below the detectable limit for the analyte or less than half of the population showed any appreciable concentration”.

Consider `CCCCCc1cc(O)c2c(c1)OC(C)(C)[C@@H]1CCC(C(=O)O)=C[C@@H]21` [COOH-THC, COOH-tetrahydrocannabinol], for which the “detectability in serum of cats” value in data set [1] (cats, serum) is “either below the detectable limit for the analyte or less than half of the population showed any appreciable concentration”.

Consider `CCCCCc1cc(O)c2c(c1)OC(C)(C)[C@H]1CCC(C(=O)O[C@@H]3O[C@H](C(=O)O)[C@@H](O)[C@H](O)[C@H]3O)=C[C@H]21` [COOH-THC-glu, COOH-glucuroniated tetrahydrocannabinol], for which, in data set [1] (cats, serum), the “detectability in serum of cats” value is listed as “either below the detectable limit for the analyte or less than half of the population showed any appreciable concentration”.

With `CCCCCc1cc(O)c2c(c1)OC(C)(C)[C@@H]1CCC(C)=C[C@@H]21` [THC, Δ9-tetrahydrocannabinol, reference compound], the “predicted steady state (Css Ave) versus actual serum concentration” value in data set [2] is listed as “predicted concentration was higher than the actual concentration”. Besides, the “Css Ave (calculated predicted 5 half-life mean serum concentration)” value in data set [1] (cats, mean ± SD) was 11.9 ± 5.2 ng/mL. The “detectability in serum of cats” value in data set [1] (cats, serum) was “either below the detectable limit for the analyte or less than half of the population showed any appreciable concentration”. For the same molecule, in data set [1] (setting [5]), the AUC(0-t) worked out at 156.5 ± 65.8 ng·h/mL. Moreover, in data set [1] (setting [6]), the Cmax amounted to 40.9 ± 12.9 ng/mL, the MRT was 3.7 ± 0.4 h, the T1/2 el is 1.6 ± 0.4 h and the time of peak concentration (Tmax) is listed as 2 ± 0 h.

As for `CCCCCc1cc2c(c(O)c1C(=O)O)C1C=C(C)CCC1C(C)(C)O2` (centres unmarked) [THCA, Δ9-tetrahydrocannabinolic acid], in data set [2], the “predicted steady state (Css Ave) versus actual serum concentration” value is “no different”. Besides, in data set [1] (cats, mean ± SD), the “Css Ave (calculated predicted 5 half-life mean serum concentration)” value is 43.3 ± 13.9 ng/mL. The AUC(0-t) in data set [1] (setting [5]) amounted to 434.0 ± 229.1 ng·h/mL. For the same molecule, in data set [1] (setting [6]), the Cmax worked out at 87.9 ± 34.0 ng/mL, the MRT is recorded as 5.5 ± 2.1 h, the T1/2 el is 3.8 ± 1.3 h and the Tmax is 2 ± 0.9 h.
